# Experimental data as given in article PMC5321741, “Arylmethylamino steroids as antiparasitic agents” (Nature Communications, 2017).
# Where two headings read alike, the source gives them in different places.
# What was measured:
# [1] = tested on: hGrx1-roGFP2 in P. falciparum 3D7; assay: cytosolic glutathione redox sensor in parasites; format: cell-based, Plasmodium falciparum; conditions: for oxidizing effect, change of 405/488 nm fluorescence ratio: 4 h
# Protocol: To further study the mechanism of action of the steroid compounds and evaluate the potential involvement of redox stress, compound 1o was tested in cell culture on the chloroquine-sensitive P. falciparum 3D7 strain expressing the cytosolic glutathione redox sensor hGrx1-roGFP2 (Supplementary Note 2). […]
# signals at 405/475 nm were calculated and plotted against time and/or concentration of compound 1o or redox active compounds. Data from three independent experiments were […]
# 100 µM for 4 h and 24 h incubations. Transfection of the Pf3D7 strain with the redox sensor was carried out, and the parasites were cultured as described under constant drug pressure with 5 nM WR99210 (Jacobus Pharmaceuticals, New Jersey, USA).45,46 P. falciparum trophozoites were enriched via magnet separation.47 Parasitemia was counted by using Giemsa-stained blood smears. The IC50 of compound 1o on P. falciparum 3D7 asexual blood stages was verified to be about 5 nM in an additional 72 h [3H] incorporation assay45 directly before the experiment. The effect of compound 1o on P. falciparum was investigated in 4 h and 24 h incubations. For 4 h experiments, trophozoite stage parasites (26-30 h post invasion) of 3D7[hGrx1-roGFP2] (6-8% parasitemia) were magnetically enriched (Miltenyi Biotec, Germany), counted by using the improved Neubauer hemocytometer (Brand GmbH, Germany), and returned to cell culture (at 0.5 x 10^6 trophozoites/µl) for at least 1 h to recover.
# 1.0 x 10^6 cells in 100 µl cell culture medium were placed into LoBind tubes (Eppendorf) for 4 h incubation experiments. The parasites were treated with compound 1o at 50 x, and 100 x IC and with mefloquine (MQ) as a standard antimalarial drug at 1 µM (IC = 8 nM)45 for 4 h […]
# for 15 min at 37 °C. For 24 h experiments, a 5 ml culture (6-8% parasitemia) of ring stage parasites (6-10 h post invasion) was treated with compound 1o at 4 x, 10 x, 20 x IC50 and with 100 nM MQ. Prior to enrichment, cysteines were blocked with 2 mM NEM. For 4 h and 24 h experiments, cells were washed after incubation with pre-warmed Ringer’s solution […]
# Hepes, 1 mM NaH2PO4, pH 7.4) and were seeded onto poly-L-lysine-coated µ-slides VI (Ibidi, Martinsried, Germany). A Leica confocal system TCS SP5 inverted microscope equipped with the objective HCX PL APO 63.0x1.30 GLYC 37 °C UV connected to a 37 °C temperature chamber was used. The argon laser power was set to 20%; scanning was performed at 400 Hz frequency and at a 512 × 512 pixel resolution. The smart gain and […]
# smart offset were 950 V and -0.9%, respectively. With a sequential scan, we excited the sensor at 405 nm and at 488 nm and detected emissions at 500-550 nm. Laser intensity for both lines was adjusted to match the full dynamic range of the probe to the dynamic range of the detector (405 nm: 12%, 488 nm: 4%). Autofluorescence images were simultaneously taken at ex 405 nm / em 430-450 nm and individually defined together with the background for every image, but no fluorescence signal could be detected. All experiments included non- […]
# and 10 mM DTT (2 min incubation), respectively, prior to blocking with NEM. Only parasites showing fluorescent signals at both 405 and 488 nm excitation and an intact host cell were chosen for analysis. Each experiment was carried out three times. At least 10 parasites were analyzed, resulting in at least 30 experimental values per incubation. The Leica LAS AF Lite software for fluorescence analysis was used. The 405/488 nm ratio was calculated. The obtained ratio values were normalized to the control ratio value, which was set to 100. The graphs were plotted using the GraphPad Prism 5 software (San Diego, CA, USA). One way-ANOVA test with 95% confidence intervals with the Dunnett’s Multiple Comparison Test was applied for statistical analysis of significance (*, p < 0.05; **, p < 0.01; ***, p < 0.001). […]
# with 1 µM MQ. 24 h incubation (Supplementary Figure 8 panel B) with compound 1o resulted in a higher increase of the fluorescence ratio in a concentration-dependent manner. […]
# [2] = plasma protein binding (rapid equilibrium dialysis); format: in vitro ADME; conditions: read-out: Plasma Protein Binding % bound (converted)
# Protocol: Pharmacokinetic data were obtained for compound 1o at the Sanford-Burnham Medical Research Institute according to established procedures. Compound solubility in an aqueous solution was measured using an automated kinetic solubility method. The concentration of the compound in a saturated pH-buffered aqueous solution was determined via UV absorbance (250–498 nm) and compared with the spectra of a precipitation-free reference solution. The plasma stability of the compound was determined at a single concentration using species-specific plasma. The percentage of parent compound remaining after 3 h was determined via LC-MS/MS. The percentage of compound 1o bound to plasma proteins was determined through rapid equilibrium dialysis and quantified via LC-MS/MS. Metabolic stability of the compound was determined at a single concentration using species-specific liver microsomes that contained cytochrome P450s, flavin-monooxygenases, carboxyl-esterases, epoxide hydrolases, and other drug-metabolizing enzymes. The quantification was carried out via LC-MS/MS. Membrane permeability of compound 1o was measured using an in vitro model for the passive transport from the gastrointestinal tract into the blood system. A double-sink parallel artificial membrane permeability assay PAMPA, in a 96-well format was employed.
smiles,measurement,setting,value
COc1ccc2c(c1)CCC1C2CC[C@@]2(C)C1CC[C@H]2NCc1cc2ccccc2cc1O (stereo partly drawn) [1o],change of 405/488 nm fluorescence ratio,"[1]; 20 nM (4 x IC50), 24 h",1.8 fold
same,change of 405/488 nm fluorescence ratio,"[1]; 100 nM, 24 h",2.4 fold
same,"oxidizing effect, change of 405/488 nm fluorescence ratio",[1]; 250 nM (50 x IC50),approximately 1.5 fold
same,"oxidizing effect, change of 405/488 nm fluorescence ratio",[1]; 500 nM (100 x IC50),approximately 1.5 fold
same,redox ratio of the probe,"[1]; 20, 50 and 100 nM, 24 h, not significant",dose-dependent increase of the redox ratio of the probe
same,fraction unbound at 1 µM,[2]; Human,0.0087
same,fraction unbound at 10 µM,[2]; Human,0.0094
same,fraction unbound at 1 µM,[2]; Mouse,0.0094
same,fraction unbound at 10 µM,[2]; Mouse,0.0107
